Results as given in patent US7704995B2 (Exelixis, Inc., priority 2003, dated 2010).

Legend:
Assay in all cases: Kinase specificity assay (33P phosphoryl transfer, LCCA or AlphaScreen)
Format in all cases: biochemical
EGFR = EGFR (Homo sapiens, UniProt P00533); details: ATP close to KM; read-out: EGFR inhibition, IC50
Experimental: (§1) Kinase activity and compound inhibition are investigated using one or more of the three assay formats described below. The ATP concentrations for each assay are selected to be close to the Michaelis-Menten constant (KM) for each individual kinase. Dose-response experiments are performed at 10 different inhibitor concentrations in a 384-well plate format. The data are fitted to the following four-parameter equation: Y=Min+(Max−Min)/(1+(X/IC50)^H) where Y is the observed signal, X is the inhibitor concentration, Min is the background signal in the absence of enzyme (0% enzyme activity), Max is the signal in the absence of inhibitor (100% enzyme activity), IC50 is the inhibitor concentration at 50% enzyme inhibition and H represents the empirical Hill's slope to measure the cooperativity. Typically H is close to unity. ^33P Phosphoryl Transfer Assay:
(§2) Greiner 384-well white, clear bottom, high binding plates are coated with 2 μg/well of protein or peptide substrate in a 50 μL volume overnight at ambient temperature. The coating buffer typically contains 40 μg/mL substrate, 22.5 mM Na2CO3, 27.5 mM NaHCO3, 150 mM NaCl and 3 mM NaN3. The coating solution is aspirated and the plates are washed once with 50 μL of assay buffer and padded dry. Subsequently compounds and enzymes are mixed with γ^33P-ATP (3.3 μCi/nmol) in a total volume of 20 uL in suitable assay buffers. The mixture is incubated at ambient temperature for 1.5-2.5 hrs and terminated by aspiration using a Molecular Devices EMBLA 96-head plate washer. The plates are subsequently washed 6-12 times with PBST or TBS buffer. Scintillation fluid (50 μl/well) is then added, the plates are sealed and activity assessed by liquid scintillation spectrometry using a Perkin Elmer MicroBeta TriLux.
(§3) In the LCCA assays, kinase activity is measured as the percent ATP consumed following the kinase reaction using luciferase-luciferin-coupled chemiluminescence. Greiner 384-well white, clear bottom, medium binding plates are used for LCCA. Briefly, the kinase reaction is initiated by mixing compounds, ATP and kinase in a 20 uL volume. The mixture is incubated at ambient temperature for 2-4 hrs. At the end of the kinase reaction, a 20 uL luciferase-luciferin mix is added and the chemiluminescent signal is read using a Wallac Victor^2 reader. The luciferase-luciferin mix consists of 50 mM HEPES, pH 7.8, 8.5 ug/mL oxalic acid (pH 7.8), 5 (or 50) mM DTT, 0.4% Triton X-100, 0.25 mg/mL coenzyme A, 63 uM AMP, 28 ug/mL luciferin and 40,000 units of light/mL luciferase. For the LCCA assays, total ATP consumption has been standardized to 25-45% and the IC50 values correlates well with those determined by radiometric assays.
(§4) AlphaScreen technology is a proximity assay which utilizes the increase in fluorescent signal when donor and acceptor beads are close in proximity. Biotinylated poly(Glu,Tyr) 4:1 is used as the kinase substrate, in conjunction with streptavidin-coated donor beads and anti-phosphortyrosine antibody PY100-coated acceptor beads. Upon phosphorylation, the peptide substrate can bind to both donor and acceptor beads giving rise to an increase in fluorescence. Compounds, ATP, biotinylated poly(Glu, Tyr) and kinases are mixed in a volume of 20 uL for 1 hr at ambient temperature using Greiner 384-well white clear bottom medium binding plates. Following incubation a 10 uL solution containing […] AlphaScreen beads, 75 mM Hepes, pH 7.4, 300 mM NaCl, 120 mM EDTA, 0.3% BSA and 0.03% Tween-20 is added to each well. After 2-16 hr incubation of the beads, plates are read in a Perkin Elmer AlphaQuest reader. The IC50 values correlates well with those of radiometric assays.

EphA2R = EphA2R (Homo sapiens, UniProt P29317); details: ATP close to KM; read-out: EphA2R inhibition, IC50
Chain of EphA2R (P29317 24-976): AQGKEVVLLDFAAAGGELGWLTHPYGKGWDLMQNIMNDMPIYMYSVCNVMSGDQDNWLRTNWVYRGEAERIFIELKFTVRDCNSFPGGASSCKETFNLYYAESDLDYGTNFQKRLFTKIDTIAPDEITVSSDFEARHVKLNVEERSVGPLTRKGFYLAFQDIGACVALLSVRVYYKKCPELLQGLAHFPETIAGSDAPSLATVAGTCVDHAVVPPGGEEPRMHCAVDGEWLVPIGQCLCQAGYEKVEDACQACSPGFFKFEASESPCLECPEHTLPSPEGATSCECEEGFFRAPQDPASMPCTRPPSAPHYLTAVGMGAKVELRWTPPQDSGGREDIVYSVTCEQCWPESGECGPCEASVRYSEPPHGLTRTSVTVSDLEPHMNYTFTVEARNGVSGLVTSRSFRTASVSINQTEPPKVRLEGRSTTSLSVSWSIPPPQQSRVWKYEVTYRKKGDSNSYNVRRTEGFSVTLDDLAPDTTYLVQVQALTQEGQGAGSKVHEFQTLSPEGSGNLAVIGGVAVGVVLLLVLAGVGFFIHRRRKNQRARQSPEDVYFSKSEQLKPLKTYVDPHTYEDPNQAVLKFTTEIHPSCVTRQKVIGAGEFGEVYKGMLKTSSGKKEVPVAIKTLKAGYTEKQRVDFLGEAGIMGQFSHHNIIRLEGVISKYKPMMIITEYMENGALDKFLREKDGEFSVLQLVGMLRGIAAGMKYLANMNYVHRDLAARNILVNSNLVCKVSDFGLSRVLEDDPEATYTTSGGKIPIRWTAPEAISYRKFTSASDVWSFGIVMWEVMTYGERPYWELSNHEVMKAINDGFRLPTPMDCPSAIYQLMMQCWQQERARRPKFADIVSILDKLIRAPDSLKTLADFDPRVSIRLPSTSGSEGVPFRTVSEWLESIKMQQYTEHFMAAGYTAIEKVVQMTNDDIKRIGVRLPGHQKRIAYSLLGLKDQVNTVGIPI
Experimental: as §1, §2, §3, §4

ErbB2 = ErbB2 (Homo sapiens, UniProt P04626); details: ATP close to KM; read-out: ErbB2 inhibition, IC50
Chain of ErbB2 (P04626 23-1255): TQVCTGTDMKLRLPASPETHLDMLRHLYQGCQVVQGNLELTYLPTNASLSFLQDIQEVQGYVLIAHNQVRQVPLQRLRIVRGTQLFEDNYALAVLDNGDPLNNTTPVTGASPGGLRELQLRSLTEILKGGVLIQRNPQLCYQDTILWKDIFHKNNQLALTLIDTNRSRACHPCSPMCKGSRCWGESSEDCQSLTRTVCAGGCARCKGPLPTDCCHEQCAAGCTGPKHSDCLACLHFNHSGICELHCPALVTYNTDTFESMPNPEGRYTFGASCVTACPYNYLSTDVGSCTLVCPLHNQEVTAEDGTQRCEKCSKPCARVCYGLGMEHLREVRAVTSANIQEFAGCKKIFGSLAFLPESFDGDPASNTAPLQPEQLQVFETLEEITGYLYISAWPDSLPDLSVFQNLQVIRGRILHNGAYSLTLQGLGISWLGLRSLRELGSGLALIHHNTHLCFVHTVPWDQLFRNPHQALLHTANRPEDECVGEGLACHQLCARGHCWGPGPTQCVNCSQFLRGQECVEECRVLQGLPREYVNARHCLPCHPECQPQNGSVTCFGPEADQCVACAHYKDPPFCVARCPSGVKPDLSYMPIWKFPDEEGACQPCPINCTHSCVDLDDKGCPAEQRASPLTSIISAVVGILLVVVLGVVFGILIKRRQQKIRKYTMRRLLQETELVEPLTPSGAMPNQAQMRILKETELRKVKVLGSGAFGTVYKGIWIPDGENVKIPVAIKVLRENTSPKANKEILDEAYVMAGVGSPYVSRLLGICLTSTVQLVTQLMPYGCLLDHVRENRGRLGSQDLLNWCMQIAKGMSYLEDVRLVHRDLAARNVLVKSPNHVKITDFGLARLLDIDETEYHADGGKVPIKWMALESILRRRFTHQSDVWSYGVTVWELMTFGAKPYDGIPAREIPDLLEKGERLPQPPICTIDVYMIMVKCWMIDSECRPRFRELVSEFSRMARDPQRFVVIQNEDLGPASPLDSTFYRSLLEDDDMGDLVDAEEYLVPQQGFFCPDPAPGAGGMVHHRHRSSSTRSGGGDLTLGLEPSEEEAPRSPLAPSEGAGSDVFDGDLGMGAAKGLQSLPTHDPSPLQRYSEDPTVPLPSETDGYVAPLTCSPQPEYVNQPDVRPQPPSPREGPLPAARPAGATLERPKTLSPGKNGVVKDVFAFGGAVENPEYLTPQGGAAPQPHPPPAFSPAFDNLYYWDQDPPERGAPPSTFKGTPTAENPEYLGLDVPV
Experimental: as §1, §2, §3, §4

IRK = IRK (Homo sapiens, UniProt P06213); details: ATP close to KM; read-out: IRK inhibition, IC50
Experimental: as §1, §2, §3, §4

MAP4K3 = target: T1, MAP4K3 (Homo sapiens, UniProt Q8IVH8); details: ATP close to KM; read-out: MAP4K3 inhibition, IC50
T1 sequence (Q8IVH8 1-894): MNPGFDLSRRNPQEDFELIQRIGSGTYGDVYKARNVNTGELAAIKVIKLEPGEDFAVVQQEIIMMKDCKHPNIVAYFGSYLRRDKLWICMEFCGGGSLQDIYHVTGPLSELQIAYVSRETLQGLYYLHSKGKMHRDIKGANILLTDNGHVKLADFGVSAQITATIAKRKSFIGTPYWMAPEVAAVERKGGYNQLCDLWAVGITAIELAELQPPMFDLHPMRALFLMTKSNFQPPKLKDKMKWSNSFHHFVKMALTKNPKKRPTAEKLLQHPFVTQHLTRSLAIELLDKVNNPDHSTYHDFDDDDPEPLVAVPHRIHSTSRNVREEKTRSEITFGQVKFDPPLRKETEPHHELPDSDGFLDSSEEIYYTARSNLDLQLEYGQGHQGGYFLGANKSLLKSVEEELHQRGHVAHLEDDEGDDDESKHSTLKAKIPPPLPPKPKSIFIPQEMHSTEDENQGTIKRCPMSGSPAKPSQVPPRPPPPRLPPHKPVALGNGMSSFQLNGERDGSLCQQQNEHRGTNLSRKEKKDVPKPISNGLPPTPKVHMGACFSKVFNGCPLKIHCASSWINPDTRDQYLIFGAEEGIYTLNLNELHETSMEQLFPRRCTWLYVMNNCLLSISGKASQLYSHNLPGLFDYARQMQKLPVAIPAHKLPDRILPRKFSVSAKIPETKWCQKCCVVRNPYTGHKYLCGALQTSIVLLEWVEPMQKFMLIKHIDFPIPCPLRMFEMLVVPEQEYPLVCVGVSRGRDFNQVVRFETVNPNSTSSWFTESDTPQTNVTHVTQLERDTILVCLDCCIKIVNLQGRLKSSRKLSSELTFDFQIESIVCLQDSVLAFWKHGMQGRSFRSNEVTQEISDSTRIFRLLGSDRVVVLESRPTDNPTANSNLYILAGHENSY
Experimental: as §1, §2, §3, §4

PDGFR-β = PDGFR-β (Homo sapiens, UniProt P09619); details: ATP close to KM; read-out: PDGFR-β inhibition, IC50
Chain of PDGFR-β (P09619 33-1106): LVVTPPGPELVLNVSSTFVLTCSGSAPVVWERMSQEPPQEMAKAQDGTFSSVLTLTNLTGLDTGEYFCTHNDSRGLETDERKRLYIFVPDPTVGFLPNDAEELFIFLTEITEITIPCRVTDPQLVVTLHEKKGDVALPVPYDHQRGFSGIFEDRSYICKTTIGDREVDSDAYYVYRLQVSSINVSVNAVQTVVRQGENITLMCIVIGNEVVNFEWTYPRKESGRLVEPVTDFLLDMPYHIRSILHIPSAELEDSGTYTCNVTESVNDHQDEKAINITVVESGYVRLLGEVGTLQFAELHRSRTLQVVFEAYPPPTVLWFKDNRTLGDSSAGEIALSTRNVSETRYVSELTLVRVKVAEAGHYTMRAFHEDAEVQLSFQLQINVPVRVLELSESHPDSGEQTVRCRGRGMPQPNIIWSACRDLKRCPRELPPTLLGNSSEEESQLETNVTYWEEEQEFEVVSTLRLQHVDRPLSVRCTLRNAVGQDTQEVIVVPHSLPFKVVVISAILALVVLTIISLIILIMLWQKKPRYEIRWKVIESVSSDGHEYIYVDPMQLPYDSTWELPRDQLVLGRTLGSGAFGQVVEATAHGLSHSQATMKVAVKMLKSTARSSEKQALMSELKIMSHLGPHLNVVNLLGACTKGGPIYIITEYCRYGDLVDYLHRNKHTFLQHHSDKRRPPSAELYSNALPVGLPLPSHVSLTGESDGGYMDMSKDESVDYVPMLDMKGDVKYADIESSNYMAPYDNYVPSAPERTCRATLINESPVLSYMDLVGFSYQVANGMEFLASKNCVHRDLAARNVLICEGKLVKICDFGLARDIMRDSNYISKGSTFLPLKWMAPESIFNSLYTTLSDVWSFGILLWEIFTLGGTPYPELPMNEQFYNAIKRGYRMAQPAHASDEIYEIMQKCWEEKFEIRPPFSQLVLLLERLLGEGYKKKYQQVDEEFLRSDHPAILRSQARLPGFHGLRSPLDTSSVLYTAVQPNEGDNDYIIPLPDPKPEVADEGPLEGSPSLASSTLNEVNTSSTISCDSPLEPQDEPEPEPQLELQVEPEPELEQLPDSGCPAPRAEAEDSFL
Experimental: as §1, §2, §3, §4

PKA = PKA (Homo sapiens, UniProt P17612); details: ATP close to KM; read-out: PKA inhibition, IC50
Experimental: as §1, §2, §3, §4

PLK = PLK (Homo sapiens, UniProt P53350); details: ATP close to KM; read-out: PLK inhibition, IC50
Chain of PLK (P53350 whole entry): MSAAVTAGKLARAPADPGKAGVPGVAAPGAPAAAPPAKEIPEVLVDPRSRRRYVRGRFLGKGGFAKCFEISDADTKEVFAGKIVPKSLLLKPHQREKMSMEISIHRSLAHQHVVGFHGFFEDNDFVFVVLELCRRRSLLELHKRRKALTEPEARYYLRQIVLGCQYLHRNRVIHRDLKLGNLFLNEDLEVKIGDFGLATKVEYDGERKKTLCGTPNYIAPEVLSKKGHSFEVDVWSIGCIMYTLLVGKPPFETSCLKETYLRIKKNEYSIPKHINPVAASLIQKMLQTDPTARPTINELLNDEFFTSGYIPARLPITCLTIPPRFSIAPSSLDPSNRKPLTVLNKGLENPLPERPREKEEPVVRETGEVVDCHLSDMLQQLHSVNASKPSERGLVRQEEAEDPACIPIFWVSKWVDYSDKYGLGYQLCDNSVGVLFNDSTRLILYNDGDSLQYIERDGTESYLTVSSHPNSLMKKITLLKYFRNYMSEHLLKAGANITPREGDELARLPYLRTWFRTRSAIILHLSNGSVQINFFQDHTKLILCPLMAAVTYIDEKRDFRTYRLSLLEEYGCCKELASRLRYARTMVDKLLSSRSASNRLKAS
Experimental: as §1, §2, §3, §4

Chain of EGFR (P00533 25-1210): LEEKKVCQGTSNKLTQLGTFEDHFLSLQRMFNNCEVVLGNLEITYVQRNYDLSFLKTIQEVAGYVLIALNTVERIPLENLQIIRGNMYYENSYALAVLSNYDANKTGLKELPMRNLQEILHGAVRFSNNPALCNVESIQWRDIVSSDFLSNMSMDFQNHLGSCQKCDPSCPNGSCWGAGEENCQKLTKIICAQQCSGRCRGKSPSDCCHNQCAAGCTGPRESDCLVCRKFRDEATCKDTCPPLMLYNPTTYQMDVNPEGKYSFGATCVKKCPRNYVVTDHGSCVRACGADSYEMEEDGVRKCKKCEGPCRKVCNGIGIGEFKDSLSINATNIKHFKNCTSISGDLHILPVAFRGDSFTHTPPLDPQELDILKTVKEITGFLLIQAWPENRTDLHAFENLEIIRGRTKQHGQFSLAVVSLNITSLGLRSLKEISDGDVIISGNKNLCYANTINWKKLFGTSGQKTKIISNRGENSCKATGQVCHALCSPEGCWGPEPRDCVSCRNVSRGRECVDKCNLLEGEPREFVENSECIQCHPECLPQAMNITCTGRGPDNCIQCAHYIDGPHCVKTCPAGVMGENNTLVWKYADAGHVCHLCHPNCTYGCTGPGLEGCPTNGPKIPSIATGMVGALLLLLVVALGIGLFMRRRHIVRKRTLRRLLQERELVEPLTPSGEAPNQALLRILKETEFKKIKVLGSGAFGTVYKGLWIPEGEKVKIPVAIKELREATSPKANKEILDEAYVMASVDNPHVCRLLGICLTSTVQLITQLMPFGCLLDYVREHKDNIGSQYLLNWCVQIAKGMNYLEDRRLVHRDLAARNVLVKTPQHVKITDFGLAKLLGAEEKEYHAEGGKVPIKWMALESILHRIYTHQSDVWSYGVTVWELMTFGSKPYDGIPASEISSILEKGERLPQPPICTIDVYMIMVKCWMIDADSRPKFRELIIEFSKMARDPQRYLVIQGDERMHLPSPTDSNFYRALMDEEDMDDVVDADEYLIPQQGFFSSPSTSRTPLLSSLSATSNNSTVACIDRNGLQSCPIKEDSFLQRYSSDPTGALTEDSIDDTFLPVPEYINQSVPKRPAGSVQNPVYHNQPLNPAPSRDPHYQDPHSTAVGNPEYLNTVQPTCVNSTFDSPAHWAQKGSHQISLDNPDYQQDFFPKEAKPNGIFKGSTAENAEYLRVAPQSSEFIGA

## NC(=O)c1nc(-c2cccc3ccccc23)cnc1N [Example 2, 3-Amino-6-naphthalen-1-ylpyrazine-2-carboxamide]
EGFR
  IC50: ≥ 10 µM
EphA2R
  IC50: ≥ 10 µM
ErbB2
  IC50: ≥ 10 µM
IRK
  IC50: ≥ 10 µM
MAP4K3
  IC50: < 0.05 µM
PDGFR-β
  IC50: 0.05 to 1 µM
PKA
  IC50: 1 to 10 µM
PLK
  IC50: 1 to 10 µM
